Counter-ions that a name gives are not always drawn. Like-named read-outs stand apart in the source and are kept apart here.
Columns and labels:
HEK293 = assay: Cellular IC50 HEK293; format: cell-based
From the text: (§1) XLfit (idbs) was used to determine the IC50-values in inhibition experiments. The following formula was chosen to fit the data points (Langmuir Binding Isotherm): fit=((A+(B*x))+(((C−B)*(1−exp((−1*D)*x)))/D)), res=(y−fit).

[1] = Metabolic stability in human liver microsomes (HLM); format: in vitro ADME; conditions: pH 7.4, 1 μM compound, 0.5 mg/ml microsomal protein, 37° C.; for half-life at 1 μM: read-out: HLM t1/2 average
Procedure: (§2) Metabolic stability was investigated in mouse liver microsomes (MLM) and in human liver microsomes (HLM): […] Incubations were performed at 37° C. Control incubations with reference substances were included for each experiment. […] After the last time point, the quench plates were mixed thoroughly and centrifuged for 15 minutes at 3700 rpm and 10° C. (Eppendorf 5804R). The supernatant was transferred to new 96 well plates and subjected to LCMS analysis. The disappearance of the parent compound was determined.

[2] = Metabolic stability in mouse liver microsomes (MLM); format: in vitro ADME; conditions: pH 7.4, 1 μM compound, 0.5 mg/ml microsomal protein, 37° C.; for half-life at 1 μM: read-out: MLM t1/2 average
Procedure: as §2

TNKS2 = TNKS2 (Homo sapiens (Human), UniProt Q9H2K2); assay: Biochemical IC50 TNKS2; conditions: read-out: Biochemical IC50 TNKS2
TNKS2, sequence (Q9H2K2 whole entry): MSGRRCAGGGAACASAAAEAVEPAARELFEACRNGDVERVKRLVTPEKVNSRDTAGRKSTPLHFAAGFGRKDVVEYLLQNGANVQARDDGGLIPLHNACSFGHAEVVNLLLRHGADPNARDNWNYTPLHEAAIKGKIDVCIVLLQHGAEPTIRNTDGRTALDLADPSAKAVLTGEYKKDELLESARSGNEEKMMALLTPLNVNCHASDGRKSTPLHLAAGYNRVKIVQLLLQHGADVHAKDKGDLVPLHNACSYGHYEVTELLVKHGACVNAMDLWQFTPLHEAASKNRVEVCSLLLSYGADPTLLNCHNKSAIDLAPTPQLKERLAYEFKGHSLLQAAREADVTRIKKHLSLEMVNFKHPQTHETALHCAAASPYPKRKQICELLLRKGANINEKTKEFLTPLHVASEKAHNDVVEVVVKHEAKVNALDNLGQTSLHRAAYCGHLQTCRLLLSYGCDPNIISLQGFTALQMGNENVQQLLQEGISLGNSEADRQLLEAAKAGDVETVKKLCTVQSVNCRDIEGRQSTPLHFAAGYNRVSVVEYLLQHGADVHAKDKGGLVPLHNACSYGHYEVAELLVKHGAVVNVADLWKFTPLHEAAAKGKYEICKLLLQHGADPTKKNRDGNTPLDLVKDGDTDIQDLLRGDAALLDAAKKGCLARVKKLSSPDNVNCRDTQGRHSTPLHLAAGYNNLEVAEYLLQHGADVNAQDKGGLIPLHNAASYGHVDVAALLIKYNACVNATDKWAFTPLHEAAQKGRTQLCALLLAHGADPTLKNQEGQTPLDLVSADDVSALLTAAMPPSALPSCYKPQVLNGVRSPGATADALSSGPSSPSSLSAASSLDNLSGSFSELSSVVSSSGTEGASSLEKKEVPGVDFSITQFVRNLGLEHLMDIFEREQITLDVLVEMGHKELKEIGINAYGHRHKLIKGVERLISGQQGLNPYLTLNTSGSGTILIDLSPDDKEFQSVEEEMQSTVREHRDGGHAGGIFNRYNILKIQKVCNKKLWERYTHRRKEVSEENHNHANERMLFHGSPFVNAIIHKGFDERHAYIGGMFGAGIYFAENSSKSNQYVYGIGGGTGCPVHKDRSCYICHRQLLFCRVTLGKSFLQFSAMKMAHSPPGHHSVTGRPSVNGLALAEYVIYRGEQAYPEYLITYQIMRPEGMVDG
From the text: as §1

[3] = Homo sapiens, HEK293; read-out: Cellular IC50 HEK293

| microsomal CLint at 1 μM [1] | half-life at 1 μM [1] | microsomal CLint at 1 μM [2] | half-life at 1 μM [2] | IC50 (TNKS2) | SMILES | IC50 (HEK293; Homo sapiens, HEK293, read-out: Cellular IC50 HEK293) | IC50 (HEK293; [3]) |
| --- | --- | --- | --- | --- | --- | --- | --- |
| 45 µL/min/mg | 0.517 h | 72 µL/min/mg | 0.317 h | 36 nM | CCOc1ccc(-c2nnc([C@H]3C[C@H](NC(=O)c4cccc5ncc(O)nc45)C3)n2-c2ccccc2F)nc1 [Example 1, N-((1R,3r)-3-(5-(5-ethoxypyridin-2-yl)-4-(2-fluorophenyl)-4H-1,2,4-triazol-3-yl)cyclobutyl)-3-hydroxyquinoxaline-5-carboxamide] | – | 220 nM |
| 17 µL/min/mg | 1.32 h | 7 µL/min/mg | > 1.5 h | 1.5 nM | CCOc1ccc(-c2nnc([C@H]3C[C@H](NC(=O)c4cccc5nc(O)cnc45)C3)n2-c2ccccc2F)nc1 [Example 2, Dihydrochloride] | – | 1.1 nM |
| 5 µL/min/mg | > 1.5 h | 9 µL/min/mg | > 1.5 h | 71 nM | CCOc1ccc(-c2nnc([C@H]3C[C@H](NC(=O)c4cccc5nc(O)c(O)nc45)C3)n2-c2ccccc2F)nc1 [Example 3, N-((1R,3r)-3-(5-(5-ethoxypyridin-2-yl)-4-(2-fluorophenyl)-4H-1,2,4-triazol-3-yl)cyclobutyl)-2,3-dihydroxyquinoxaline-5-carboxamide] | – | 1250 nM |

| SMILES | microsomal CLint at 1 μM [1] | half-life at 1 μM [1] | microsomal CLint at 1 μM [2] | half-life at 1 μM [2] | IC50 (TNKS2) | IC50 (HEK293; Homo sapiens, HEK293, read-out: Cellular IC50 HEK293) | IC50 (HEK293; [3]) |
| --- | --- | --- | --- | --- | --- | --- | --- |
| CCOc1ccc(-c2nnc([C@H]3C[C@H](NC(=O)c4cccc5c4ncc[n+]5[O-])C3)n2-c2ccccc2F)nc1 [Example 4, 5-(((1R,3r)-3-(5-(5-ethoxypyridin-2-yl)-4-(2-fluorophenyl)-4H-1,2,4-triazol-3-yl)cyclobutyl)carbamoyl)quinoxaline 1-oxide] | 5 µL/min/mg | > 1.5 h | 19 µL/min/mg | 1.18 h | 1.6 nM | 2.5 nM | – |

— US20230322721A1 (OSLO UNIVERSITETSSYKEHUS HF, priority 2020, published 2023)
